“Also recorded” adds a separate entry of the source.
Key:
Type in all cases: in vivo
Medicago sativa plants [1] = test: Lipid peroxidation (leaf MDA/TBARS content) in drought-stressed plants; settings: FIG. 13
Method: (§1) Mature (42 d) Medicago sativa plants were used for the purposes of this study. These were grown in soil medium under controlled, optimal growth conditions and were then subjected to drought stress. Drought was imposed by withholding watering until drought symptoms (loss of turgour, wilting, chlorosis) were observed (6 d after stress imposition). Samples were then re-watered to observe recovery potential after 1 day (7 d). Both NOSH and NOSH-aspirin were applied at 100 μM concentration by foliar spraying at the start of stress imposition. The hybrid donors were diluted in 30% (v/v) methanol. Physiological parameters (stomatal conductance and chlorophyll fluorescence) were measured with a DT-Porometer AP4 (Delta-TDevices, Cambridge, UK) and an OptiSci OS-30p chlorophyll fluorometer (Opti-Sciences, Hudson, N.H., USA) respectively (Filippou et al., 2013). Chlorophyll fluorescence (Fv/Fm) of leaves represents the maximum photochemical efficiency of photosystem II (PSII). Cellular damage was evaluated by lipid peroxidation levels (TBARS content), nitric oxide (NO) content (nitrosative stress) and hydrogen peroxide (H2O2) content (oxidative stress) as previously described (Filippou et al., 2011; Tanou et al., 2012), while osmoprotective capacity was evaluated by proline content (ninhydrin assay) as previously described (Antoniou et al., 2013). Antioxidant enzyme activities (SOD and CAT) were measured as previously described (Filippou et al., 2014). Real-time RT-PCR gene expression analysis was carried out using a Biorad IQ5 thermocycler as previously described (Filippou et al., 2013). Relative quantification of gene expression and statistical analysis of all qRT-PCR data (pairwise fixed reallocation randomization test) were performed using the REST software according to Pfaffl et al. (2002). The actin 11 gene was used as a housekeeping reference gene. All analyses were carried out using three independent biological pools of samples as replicates (with a minimum of fifteen independent plants per pooled sample). The experimental setup is shown schematically in FIG. 8.
An examination of cellular damage levels was performed by means of spectrophotometric determination of lipid peroxidation.

Medicago sativa plants [2] = test: Hydrogen peroxide content in leaves of drought-stressed plants; settings: FIG. 14A
Method: as §1
Abiotic stress conditions are associated with increased levels of reactive oxygen (ROS) and reactive nitrogen (RNS) species content, which are toxic for the cells. During such conditions, the production of ROS and RNS exceeds the capacity of the antioxidative defense systems to remove them, causing nitro-oxidative stress.

Medicago sativa plants [3] = test: Real-time RT-PCR gene expression in leaves of drought-stressed plants; settings: FIG. 17; for relative gene expression of genes examined (NR, GST17, Cu/ZnSOD, FeSOD, APX, PIP): after rewatering, vs drought-stressed alone plants; for SOD isoforms (Cu/ZnSOD, FeSOD) relative gene expression: pretreated and stressed vs stressed alone plants
Method: as §1
Finally, qRT-PCR gene expression analysis was carried out (FIG. 17) for key defense-related genes, including major enzymatic antioxidants (GST17, Cu/ZnSOD, FeSOD, cAPX) linked with ROS scavenging, as well as genes involved in NO biosynthesis (NR). In addition, an aquaporin (PIP) was also examined which is linked with response to water deficit and transport.

Medicago sativa plants [4] = test: Macroscopic (phenotypic) observation of drought-stressed plants; settings: for phenotype (vitality, turgor, greening): 100 μM foliar spraying, 30% MetOH, 6 d after stress imposition, vs drought-stressed plants, FIG. 9; for recovery capacity (phenotype): day 7 (6 d drought + 1 d rewatering), vs drought-stressed alone, FIG. 10; for phenotype after second wave of drought stress: day 13, another 6 days without watering, FIG. 11
Method: where cPTIO represents a NO inhibitor, while HXL is a H2S inhibitor. In addition to the previous setup of sampling control and drought-stressed samples, plants were re-watered at 6 d after drought stress imposition and additional sampling was carried out 1 d after rewatering to examine recovery of plants, while a second wave of drought stress was imposed to see if primed plants develop a longer-term, ‘memory’ effect. Plant Material and Stress Conditions
as §1

Medicago sativa plants [5] = test: Antioxidant enzyme activities (SOD and CAT) in leaves of drought-stressed plants; settings: 7 d, after rewatering, vs stressed-alone plants; for SOD enzymatic activity: FIG. 16A; for CAT enzymatic activity: FIG. 16B
Method: as §1
The enzymatic activity of two key antioxidants (SOD and CAT) were evaluated. SOD dismutates superoxide radicals to hydrogen peroxide, while CAT directly scavenges hydrogen peroxide. Both enzymes appear to be regulated in response to stress and priming agent pretreatment in a differential manner (FIG. 16). […] In any case, it should be noted that the cellular enzymatic antioxidant battery linked with ROS scavenging is very complex involving several other components (e.g. APX), isoforms in several compartments (e.g. peroxisomes, chloroplasts, mitochondria), as well as non-enzymatic antioxidants (e.g. ascorbic acid, tocopherols and glutathione).

Medicago sativa plants [6] = test: Proline content (ninhydrin assay) in leaves of drought-stressed plants; settings: 100 μM; vs drought-stressed alone samples; FIG. 15
Method: as §1, with “Antioxidant enzyme activities (SOD and CAT) were measured as previously described (Filippou et al., 2014). Real-time RT-PCR gene expression analysis was carried out using a Biorad IQ5 thermocycler as previously described (Filippou et al., 2013). Relative quantification of gene expression and statistical analysis of all qRT-PCR data (pairwise fixed reallocation randomization test) were performed using the REST software according to Pfaffl et al. (2002). The actin 11 gene was used as a housekeeping reference gene. All analyses were carried out using three independent biological pools of samples as replicates (with a minimum of fifteen independent plants per pooled sample). The experimental setup is shown schematically in FIG. 8.” left out

[7] = tested on: Arabidopsis thaliana Col-0 plants; test: Growth promotion (leaf area, ImageJ leaf series) on MS agar plates; settings: 23 DAS; for true leaf 4 and 5 area: vs control samples
Method: An in vitro experiment was carried out in order to evaluate the potential of NOSH and NOSH-A for growth promotion in terms of leaf area increase in Arabidopsis thaliana plants. Arabidopsis thaliana Col-0 plants were used for the purposes of this study. Seeds were placed on MS agar plates containing 10 μM or 100 μM NOSH or NOSH-A (diluted in 20% (v/v) acetone) which were then incubated in the dark at 4° C. for 4 days for stratification purposes. Appropriate control plates were also prepared. The plates were then placed in a growth chamber and leaves were sampled at 23 DAS (days after sowing). Complete leaf series were examined from seven individual plants per treatment (n=7). A complete leaf series consists of all leaves from each individual plant, starting from the cotyledons and including all true leaves, harvested and examined in order of presence on the plant (from older to younger true leaf). These leaves are excised and placed on agar plates where photographs are taken and leaf areas are calculated using ImageJ software (http://imagej.nih.gov/ij/).

Medicago sativa plants [8] = test: Physiological measurements (stomatal conductance, chlorophyll fluorescence) in drought-stressed plants; settings: 100 μM; vs drought-stressed samples; FIG. 12
Method: as §1

Medicago sativa plants [9] = test: Nitric oxide content in leaves of drought-stressed plants; settings: 100 μM; vs drought-stressed samples; FIG. 14B
Method: as §1, with “Antioxidant enzyme activities (SOD and CAT) were measured as previously described (Filippou et al., 2014). Real-time RT-PCR gene expression analysis was carried out using a Biorad IQ5 thermocycler as previously described (Filippou et al., 2013). Relative quantification of gene expression and statistical analysis of all qRT-PCR data (pairwise fixed reallocation randomization test) were performed using the REST software according to Pfaffl et al. (2002). The actin 11 gene was used as a housekeeping reference gene. All analyses were carried out using three independent biological pools of samples as replicates (with a minimum of fifteen independent plants per pooled sample). The experimental setup is shown schematically in FIG. 8.” left out

[10] = 100 μM, 6 d drought, vs drought-stressed samples
[11] = rewatering at 7 d vs respective pretreated, drought-stressed samples at 6 d

O=C(CCCO[N+](=O)[O-])Oc1ccc(-c2cc(=S)ss2)cc1 [NOSH]
MDA content (lipid peroxidation) (Medicago sativa plants [1]; [10]): statistically significant protection | MDA content (lipid peroxidation) (Medicago sativa plants [1]; 7 d (after rewatering)): maintained low MDA content levels close to those of control, watered samples | H2O2 content (Medicago sativa plants [2]; [10]): significantly reversed | H2O2 content (Medicago sativa plants [2]; [11]): ameliorated even further | relative gene expression of genes examined (NR, GST17, Cu/ZnSOD, FeSOD, APX, PIP) (Medicago sativa plants [3]): general suppression of most genes examined | SOD isoforms (Cu/ZnSOD, FeSOD) relative gene expression (Medicago sativa plants [3]): significant transcriptional regulation (induction) | phenotype (vitality, turgor, greening) (Medicago sativa plants [4]): significantly improved vitality, turgor and greening | recovery capacity (phenotype) (Medicago sativa plants [4]): notably improved recovery capacity | phenotype after second wave of drought stress (Medicago sativa plants [4]): maintained growth and vitality | SOD enzymatic activity (Medicago sativa plants [5]): significantly induced | CAT enzymatic activity (Medicago sativa plants [5]): increased CAT enzymatic activity; also recorded: significantly induced | proline content (Medicago sativa plants [6]): significantly lower proline content | growth induction (macroscopic analysis) ([7]; 10 μM in MS agar): visible growth induction | overall rosette area (total leaf area per plant), increase compared with control plants ([7]; 10 μM, n=7, FIG. 22): 37% | true leaf 4 and 5 area ([7]; 10 μM, n=7, FIG. 22): significantly higher | growth induction (macroscopic analysis) ([7]; 100 μM in MS agar): contrarily | greening of leaves ([7]; MS agar plates, FIGS. 18-21): increased greening | chlorophyll fluorescence (Fv/Fm) (Medicago sativa plants [8]): significantly higher | stomatal conductance (Medicago sativa plants [8]): significantly higher | nitric oxide (NO) content (Medicago sativa plants [9]): significantly reversed

O=C(CCCO[N+](=O)[O-])Oc1ccccc1C(=O)Oc1ccc(-c2cc(=S)ss2)cc1 [NOSH-A]
MDA content (lipid peroxidation) (Medicago sativa plants [1]; [10]): statistically significant protection | MDA content (lipid peroxidation) (Medicago sativa plants [1]; 7 d (after rewatering)): maintained low MDA content levels close to those of control, watered samples | H2O2 content (Medicago sativa plants [2]; [10]): significantly reversed | H2O2 content (Medicago sativa plants [2]; [11]): ameliorated even further | relative gene expression of genes examined (NR, GST17, Cu/ZnSOD, FeSOD, APX, PIP) (Medicago sativa plants [3]): general suppression of most genes examined | SOD isoforms (Cu/ZnSOD, FeSOD) relative gene expression (Medicago sativa plants [3]): significant transcriptional regulation (induction) | phenotype (vitality, turgor, greening) (Medicago sativa plants [4]): significantly improved vitality, turgor and greening | recovery capacity (phenotype) (Medicago sativa plants [4]): notably improved recovery capacity | phenotype after second wave of drought stress (Medicago sativa plants [4]): maintained growth and vitality | SOD enzymatic activity (Medicago sativa plants [5]): significantly induced | CAT enzymatic activity (Medicago sativa plants [5]): increased CAT enzymatic activity; also recorded: significantly induced | proline content (Medicago sativa plants [6]): significantly lower proline content | growth induction (macroscopic analysis) ([7]; 10 μM in MS agar): visible growth induction | true leaf 4 and 5 area ([7]; 10 μM, n=7, FIG. 22): no significant increase | growth induction (macroscopic analysis) ([7]; 100 μM in MS agar): contrarily | chlorophyll fluorescence (Fv/Fm) (Medicago sativa plants [8]): significantly higher | stomatal conductance (Medicago sativa plants [8]): significantly higher | nitric oxide (NO) content (Medicago sativa plants [9]): significantly reversed
